Legend:
Spleen cells = assay: TLR agonist induced cytokines (ELISA) of spleen cells from treated mice; type: in vivo; conditions: TriDAP 100 μg/mouse/day i.p. 5 days vs PBS; LPS, CpG or Pam3Csk; 24 hours
Method: Mice treated with either PBS or TriDAP (100 μg/mouse/day i.p.) for 5 days. Spleen cells ([…]; 1×10^6/ml) were stimulated with medium alone (control), or with a Toll-like Receptor agonist selected from the following: the TLR4 agonist LPS (lipopolysaccharide) (100 ng/ml), the TLR9 agonist CpG (5 μg/ml), or the TL2 agonist Pam3Csk (500 ng/ml). Supernatants were collected after 24 hours and cytokine concentrations were quantified by ELISA.

[1] = tested on: Peritoneal exudate cells (PECs); assay: TLR agonist induced cytokines (ELISA) of peritoneal exudate cells from treated mice; type: in vivo; conditions: TriDAP 100 μg/mouse/day i.p. 5 days vs PBS; LPS, CpG or Pam3Csk; 24 hours
Method: Mice were treated with either PBS or TriDAP (100 μg/mouse/day i.p.) for 5 days. Peritoneal exudate cells (PECs; 1×10^6/ml) were stimulated with medium alone (control), or with a Toll-like Receptor agonist selected from the following: the TLR4 agonist LPS (lipopolysaccharide) (100 ng/ml), the TLR9 agonist CpG (5 μg/ml), or the TL2 agonist Pam3Csk (500 ng/ml). Supernatants were collected after 24 hours and cytokine concentrations were quantified by ELISA.

[2] = tested on: Dendritic cells cultured from human PBMC; assay: IL-27 and IL-10 ELISA in dendritic cells cultured from human PBMC; type: cell-based; conditions: 24 hours
Method: Dendritic cells cultured from human PBMC with IL-4 and GM-CSF were stimulated with TriDap (100 μg/ml), LPS (10 or 100 ng/ml), LPS and TriDAP or medium only. Supernatants were collected after 24 hours and IL-27 and IL-10 concentrations were quantified by ELISA. **P<0.01, ***P<0.001, with versus without TriDAP.

BMDC = assay: IL-12p40, IL-23, IL-12p70 and IL-10 ELISA in BMDC with p38 or ERK inhibitor, Tri-DAP and LPS or CpG; type: cell-based, murine
Method: BMDC (1×10^6) were pretreated with the p38 inhibitor, SB203580 (5 μM—FIGS. 10-11), or the ERK inhibitor UO126 (5 μM—FIGS. 12-13) for 30 minutes prior to stimulation with Tri-DAP (100 μg/ml) or medium alone. After 2 hours the cells were then stimulated with LPS (100 ng/ml—FIGS. 10 and 12), with the TLR agonist CpG (5 μg/ml—FIGS. 11 and 13) or with medium alone. Supernatants were collected after 24 hours and IL-12p40, IL-23, IL-12p70 and IL-10 concentrations were quantified by ELISA.

EBI3 mRNA = EBI3 mRNA (real time PCR) in inguinal lymph nodes 72 hours post EAE induction; type: in vivo; conditions: Tri-DAP 100 μg/mouse days 0, 1, 2, vs control mice
Method: EAE was induced in C57BL/6 mice by subcutaneous injection with 150 μg of MOG35-55 in CFA supplemented with 4 mg/ml H37 Ra M. tuberculosis on day 0. All mice were injected i.p with PT on days 0 and 2. One group of mice were untreated and the second group were given Tri-DAP (100 μg/mouse) given on day 0 in MOG/CFA emulsion and again on days 1 and 2. Three mice from each group were sacrificed 72 hours post EAE induction. The inguinal lymph nodes were removed and collected in Trizol. EBI3 mRNA was evaluated by real time PCR normalized to 18S rRNA. Data are shown as fold induction over naïve C57BL/6 inguinal lymph nodes (FIG. 7).

Bone marrow derived DC = assay: EBI3 and IL-27p28 mRNA in bone marrow derived DC stimulated with TLR agonists; type: cell-based, murine; conditions: Tri-DAP 100 μg/ml 24 hours before LPS 10 ng/ml for 6 hours
Method: Bone marrow derived DC (1×10^6 cell/ml) were pretreated with Tri-DAP (100 μg/ml) for 24 hours prior to stimulation with the TLR agonists LPS (10 ng/ml) and CpG (5 μg/ml), and the MOG35-55 peptide (20 μg/ml) or medium alone (control) for 6 hours. EBI3 (FIG. 8 (a)) and IL-27p28 (FIG. 8 (b)) mRNA were evaluated by real time PCR normalized to 18S rRNA. Data are shown as fold induction over DC cultured in medium only.

[3] = tested on: MOG-specific IL-17, IFN-γ and TNF-α response of lymph node cells; assay: MOG-specific cytokines (ELISA) of restimulated lymph node cells after EAE induction; type: in vivo, mice; conditions: lymph node cells day 5
Method: EAE was induced in C57BL/6 mice by s.c injection with 150 μg of MOG35-55 in CFA supplemented with 4 mg/ml H37 Ra M. tuberculosis on day 0. All mice were injected i.p with PT on days 0 and 2. One group of mice were untreated, the second group were given 100 μg Tri-DAP 6 hours before immunization and a third group were given Tri-DAP (100 μg/mouse) on day 0 in MOG/CFA emulsion and again on days 1, 2 and 4. Mice were sacrificed on day 5 and lymph nodes cells were stimulated with MOG peptide (Myelin oligodendrocyte glycoprotein) (20-100 μg/ml) or as negative and positive controls, medium only or PMA and anti-CD3 respectively. After 72 hours supernatants were removed and analyzed for IL-17, TNF-α (TNF-alpha) and IFN-γ (interferon gamma) by ELISA.

[4] = tested on: IL-17-expressing and IFN-γ-expressing T cells in the brains of mice with EAE; assay: Intracellular IFN-γ and IL-17 staining (flow cytometry) of brain mononuclear cells of EAE mice; type: in vivo; conditions: CD3+, CD3+ CD4+ and CD3+ CD4− cells; 12 days post EAE induction; PMA/ionomycin
Method: Mononuclear cells were isolated from the brains of control EAE or Tri-DAP treated EAE mice 12 days post EAE induction. Cells were restimulated overnight with PMA/ionomycin and incubated with Brefeldin A. Cells were stained with anti-CD3 (FIG. 4), or anti-CD3 and anti-CD4 (FIGS. 5 and 6). Cells were then fixed and permeabilized, stained intracellularly with anti-IFN-γ and anti-IL-17 and analysed by flow cytometry.

[5] = TriDap 100 μg/ml with LPS 10 or 100 ng/ml
[6] = Tri-DAP 100 μg/ml pretreatment, LPS 100 ng/ml or CpG 5 μg/ml, 24 hours

Structure (SMILES): C[C@H](N)C(=O)N[C@H](CCC(=O)N[C@@H](CCC[C@@H](N)C(=O)O)C(=O)O)C(=O)O [Tri-DAP, L-alanyl-γ-D-glutamyl-meso-diaminopimelic acid]
- IL-10 secreted by spleen cells after re-stimulation with TLR agonists (Spleen cells): higher concentrations
- IL-27 secreted by spleen cells after re-stimulation with TLR agonists (Spleen cells): higher concentrations
- TGF-beta secreted by spleen cells after re-stimulation with TLR agonists (Spleen cells): higher concentrations
- IL-10 secreted by PEC after re-stimulation with TLR agonists [1]: higher concentrations
- TGF-beta secreted by PEC after re-stimulation with TLR agonists [1]: higher concentrations
- IL-27 expression by human derived dendritic cells ([2]; TriDAP 100 μg/ml alone, without TLR agonist): express IL-27
- IL-10 production by human dendritic cells ([2]; TriDap 100 μg/ml alone): Induces
- IL-27 expression on co-stimulation with a Toll-like Receptor agonist [2, 5]: significant enhanced
- TLR-induced IL-10 production by human dendritic cells [2, 5]: Enhances
- LPS and CpG production of IL-12p40 (BMDC; [6]): enhances
- LPS and CpG production of IL-12p70 (BMDC; [6]): enhances
- LPS and CpG production of IL-23 (BMDC; [6]): enhances
- LPS and CpG induced IL-10 production (BMDC; Tri-DAP 100 μg/ml, LPS 100 ng/ml or CpG 5 μg/ml, 24 hours): enhanced
- enhancement of LPS and CpG induced IL-10 production when p38 is inhibited (BMDC; p38 inhibitor SB203580 5 μM): completely abolished
- synergy of Tri-DAP with LPS or CpG (IL-12 family), dependence on p38 (BMDC; p38 inhibitor SB203580 5 μM): partially dependent on p38
- EBI3 gene expression in inguinal lymph nodes (EBI3 mRNA): strong fold increase
- LPS induced EBI3 gene expression (Bone marrow derived DC): enhancement
- LPS induced IL-27p28 gene expression (Bone marrow derived DC): enhancement
- MOG-specific T cell responses (IL-17, IFN-γ, TNF-α) ([3]; 100 μg Tri-DAP 6 hours before immunization, vs control EAE mice): significantly reduced
- MOG-specific T cell responses (IL-17, IFN-γ, TNF-α) ([3]; Tri-DAP 100 μg/mouse on days 0, 1, 2 and 4): no detectable
- IFN-γ production by brain T cells [4]: suppressed
- IL-17 production by brain T cells [4]: suppressed
